These results are taken from patent US9452986B2, “6-heteroaryloxy- or 6-aryloxy-quinoline-2-carboxamides and method of use” (AbbVie Inc., priority 2014, dated 2016).

The target of the test is recombinant human Nav1.7 (Homo sapiens (Human), UniProt Q15858). Briefly: FRET-based membrane potential assay, recombinant human sodium channel Nav1.7. Type of test: cell-based. In outline: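 Channel activation used veratridine at its EC80, set by a dilution curve each experiment, together with Leiurus scorpion venom, added 3 min after compound. Membrane-potential ratio signals from FLIPR Tetra in HEPES-buffered HBSS were fitted to a four-parameter Hill equation for percent inhibition and IC50.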

Setting [1] is: HEK293 cells stably expressing recombinant human Nav1.7, veratridine + scorpion venom depolarization, read-out: FRET-Membrane Potential Nav1.7 IC50.
[2] abbreviates: read-out: FRET-Membrane Potential Nav1.7 IC50.

Like-named read-outs stand apart in the source and are kept apart here. Bounds are passed on as bounds.

Sequence of recombinant human Nav1.7 (Q15858 whole entry): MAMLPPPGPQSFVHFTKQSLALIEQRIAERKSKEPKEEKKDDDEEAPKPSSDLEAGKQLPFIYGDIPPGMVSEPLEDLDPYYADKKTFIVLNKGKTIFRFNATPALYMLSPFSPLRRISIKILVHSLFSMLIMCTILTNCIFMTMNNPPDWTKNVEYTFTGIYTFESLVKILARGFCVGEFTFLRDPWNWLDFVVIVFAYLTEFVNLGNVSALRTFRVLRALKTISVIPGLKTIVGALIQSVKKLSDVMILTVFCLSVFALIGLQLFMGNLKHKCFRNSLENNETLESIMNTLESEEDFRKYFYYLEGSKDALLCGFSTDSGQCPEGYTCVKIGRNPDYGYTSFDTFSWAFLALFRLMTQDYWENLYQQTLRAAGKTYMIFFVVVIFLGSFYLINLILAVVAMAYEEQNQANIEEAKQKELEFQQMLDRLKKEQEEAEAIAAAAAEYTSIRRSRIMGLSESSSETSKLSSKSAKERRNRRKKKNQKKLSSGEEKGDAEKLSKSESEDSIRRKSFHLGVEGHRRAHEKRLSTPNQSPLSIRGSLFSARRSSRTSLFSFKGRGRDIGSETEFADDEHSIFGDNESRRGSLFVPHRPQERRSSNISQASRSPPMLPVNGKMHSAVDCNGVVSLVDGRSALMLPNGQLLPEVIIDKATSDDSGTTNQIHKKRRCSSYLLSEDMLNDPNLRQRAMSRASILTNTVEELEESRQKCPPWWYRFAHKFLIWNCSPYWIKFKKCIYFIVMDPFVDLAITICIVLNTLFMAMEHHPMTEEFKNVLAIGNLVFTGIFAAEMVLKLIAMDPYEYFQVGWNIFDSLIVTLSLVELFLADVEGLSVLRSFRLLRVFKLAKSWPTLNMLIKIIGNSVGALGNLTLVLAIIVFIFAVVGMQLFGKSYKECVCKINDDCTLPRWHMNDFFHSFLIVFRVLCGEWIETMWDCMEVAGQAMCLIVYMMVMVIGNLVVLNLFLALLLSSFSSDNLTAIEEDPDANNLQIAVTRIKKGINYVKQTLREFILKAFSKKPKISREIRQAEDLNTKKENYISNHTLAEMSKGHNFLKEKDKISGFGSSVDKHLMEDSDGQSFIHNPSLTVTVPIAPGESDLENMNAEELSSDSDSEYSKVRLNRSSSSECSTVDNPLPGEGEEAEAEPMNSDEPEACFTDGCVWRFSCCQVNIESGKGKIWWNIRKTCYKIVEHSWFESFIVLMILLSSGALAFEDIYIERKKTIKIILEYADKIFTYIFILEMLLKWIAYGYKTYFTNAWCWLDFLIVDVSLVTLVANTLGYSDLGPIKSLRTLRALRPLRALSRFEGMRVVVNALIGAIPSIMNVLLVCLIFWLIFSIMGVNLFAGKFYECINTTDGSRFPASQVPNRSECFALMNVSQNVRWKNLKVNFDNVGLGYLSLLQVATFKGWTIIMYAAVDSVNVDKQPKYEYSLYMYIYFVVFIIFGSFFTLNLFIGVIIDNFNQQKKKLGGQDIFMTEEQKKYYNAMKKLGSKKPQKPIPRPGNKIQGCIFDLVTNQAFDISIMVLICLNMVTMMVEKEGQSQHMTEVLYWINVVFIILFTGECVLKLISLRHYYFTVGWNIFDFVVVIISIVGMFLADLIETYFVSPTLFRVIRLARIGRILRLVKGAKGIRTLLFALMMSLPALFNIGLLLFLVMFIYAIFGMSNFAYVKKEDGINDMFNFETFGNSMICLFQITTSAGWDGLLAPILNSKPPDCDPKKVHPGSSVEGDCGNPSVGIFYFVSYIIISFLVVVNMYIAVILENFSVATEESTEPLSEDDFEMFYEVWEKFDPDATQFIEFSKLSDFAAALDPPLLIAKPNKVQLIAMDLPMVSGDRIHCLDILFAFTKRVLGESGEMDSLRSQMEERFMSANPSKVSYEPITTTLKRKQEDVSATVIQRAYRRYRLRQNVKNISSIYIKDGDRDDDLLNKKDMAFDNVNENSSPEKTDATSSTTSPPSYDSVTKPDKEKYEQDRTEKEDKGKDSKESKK

In the case of `O=C(NC1CCCS(=O)(=O)C1)c1ccc2cc(Oc3ccc(C(F)(F)F)cn3)ccc2n1` (stereo not shown) [Example 349, N-(1,1-dioxidotetrahydro-2H-thiopyran-3-yl)-6-{[5-(trifluoromethyl)pyridin-2-yl]oxy}quinoline-2-carboxamide], the IC50 under setting [1] came out at 3250 nM.

On to `N[C@@H]1CCN(C(=O)c2ccc3cc(Oc4ccc(C(F)(F)F)cn4)ccc3n2)C1` [Example 310, [(3R)-3-aminopyrrolidin-1-yl](6-{[5-(trifluoromethyl)pyridin-2-yl]oxy}quinolin-2-yl)methanone], for which the IC50 under setting [1] is 665 nM.

Turning to `O=C(c1ccc2cc(Oc3ncc(C(F)(F)F)cn3)ccc2n1)N1CCNCC1` [Example 247, piperazin-1-yl(6-{[5-(trifluoromethyl)pyrimidin-2-yl]oxy}quinolin-2-yl)methanone], the IC50 under setting [2] was 13300 nM.

For `O=C(NCC1(O)CC1)c1ccc2cc(Oc3ccc(C(F)(F)F)cn3)ccc2n1` [Example 369, N-[(1-hydroxycyclopropyl)methyl]-6-{[5-(trifluoromethyl)pyridin-2-yl]oxy}quinoline-2-carboxamide], the half-maximal inhibitory concentration (IC50) under setting [1] came out at 15200 nM.

With `CNC(=O)[C@@H]1CCCN1C(=O)c1ccc2cc(Oc3ccc(C(F)(F)F)cn3)ccc2n1` [Example 239, N-methyl-1-[(6-{[5-(trifluoromethyl)pyridin-2-yl]oxy}quinolin-2-yl)carbonyl]-L-prolinamide], the IC50 under setting [1] was above 20000 nM.

As to `O=C(NCCn1ccnc1)c1ccc2cc(Oc3ccc(C(F)(F)F)cn3)ccc2n1` [Example 423, N-[2-(1H-imidazol-1-yl)ethyl]-6-{[5-(trifluoromethyl)pyridin-2-yl]oxy}quinoline-2-carboxamide], the IC50 under setting [1] was 830 nM.

Regarding `O=C(NC1C[S+]([O-])C1)c1ccc2cc(Oc3ccc(C(F)(F)F)cn3)ccc2n1` (stereo not shown) [Example 503, N-(1-oxidothietan-3-yl)-6-{[5-(trifluoromethyl)pyridin-2-yl]oxy}quinoline-2-carboxamide], the IC50 under setting [1] was 586 nM.

For `N#Cc1ccc(Oc2ccc3nc(C(=O)NC4CCN(Cc5ccccc5)C4)ccc3c2)cc1` (stereo not shown) [Example 109, N-(1-benzylpyrrolidin-3-yl)-6-(4-cyanophenoxy)quinoline-2-carboxamide], the IC50 under setting [1] came to 660 nM.

On to `O=C(NC1CC(F)C1)c1ccc2cc(Oc3ccc(C(F)F)cn3)ccc2n1` (stereo not shown) [Example 617, 6-{[5-(difluoromethyl)pyridin-2-yl]oxy}-N-(3-fluorocyclobutyl)quinoline-2-carboxamide], for which the IC50 under setting [1] was 2780 nM.

For the compound `CS[C@H]1CN(C(=O)c2ccc3cc(Oc4ccc(C(F)(F)F)cn4)ccc3n2)C[C@@H]1O` [Example 348, [(3S,4S)-3-hydroxy-4-(methylsulfanyl)pyrrolidin-1-yl](6-{[5-(trifluoromethyl)pyridin-2-yl]oxy}quinolin-2-yl)methanone], under setting [1], the half-inhibitory concentration (IC50) was found to be 3900 nM.

As to `COCCCNC(=O)c1ccc2cc(Oc3ccc(C(F)(F)F)cn3)ccc2n1` [Example 599, N-(3-methoxypropyl)-6-{[5-(trifluoromethyl)pyridin-2-yl]oxy}quinoline-2-carboxamide], the IC50 under setting [1] was 1590 nM.

On to `O=C(c1ccc2cc(Oc3ccc(C(F)(F)F)cn3)ccc2n1)N1C[C@@H](F)C[C@@H]1CO` [Example 495, [(2R,4S)-4-fluoro-2-(hydroxymethyl)pyrrolidin-1-yl](6-{[5-(trifluoromethyl)pyridin-2-yl]oxy}quinolin-2-yl)methanone], for which the IC50 under setting [1] came out at 1690 nM.

Turning to `O=C(NC1(CO)CC1)c1ccc2cc(Oc3ccc(C(F)(F)F)cn3)ccc2n1` [Example 380, N-[1-(hydroxymethyl)cyclopropyl]-6-{[5-(trifluoromethyl)pyridin-2-yl]oxy}quinoline-2-carboxamide], the IC50 under setting [1] is 3000 nM.

With `O=C(c1ccc2cc(Oc3ccc(C(F)(F)F)cn3)ccc2n1)N1CC[C@H](O)[C@H](F)C1` (relative stereo) [Example 191, [cis-3-fluoro-4-hydroxypiperidin-1-yl](6-{[5-(trifluoromethyl)pyridin-2-yl]oxy}quinolin-2-yl)methanone], the IC50 (FRET-Membrane Potential Nav1.7 IC50) was above 20000 nM.

With `O=C(c1ccc2cc(Oc3ccc(C(F)(F)F)cn3)ccc2n1)N1CC2(CCCOC2)C1` [Example 533, 6-oxa-2-azaspiro[3.5]non-2-yl(6-{[5-(trifluoromethyl)pyridin-2-yl]oxy}quinolin-2-yl)methanone], the IC50 under setting [1] came out at 2400 nM.

In the case of `CC(C)COC(=O)N1CCN(C(=O)c2ccc3cc(Oc4ccc(C(F)(F)F)cn4)ccc3n2)CC1` [Example 293, isobutyl 4-[(6-{[5-(trifluoromethyl)pyridin-2-yl]oxy}quinolin-2-yl)carbonyl]piperazine-1-carboxylate], the IC50 under setting [1] is 3320 nM.

`N#Cc1ccc(Oc2ccc3nc(C(=O)NC4CCOC4)ccc3c2)cc1` (stereo not shown) [Example 114, 6-(4-cyanophenoxy)-N-(tetrahydrofuran-3-yl)quinoline-2-carboxamide]: the IC50 under setting [2] stood at 560 nM.

For `O=C(c1ccc2cc(Oc3ccc(C(F)(F)F)cn3)ccc2n1)N1CCNCC1C(F)(F)F` (stereo not shown) [Example 598, [2-(trifluoromethyl)piperazin-1-yl](6-{[5-(trifluoromethyl)pyridin-2-yl]oxy}quinolin-2-yl)methanone], the concentration for half-maximal inhibition (IC50) under setting [1] is 2980 nM.

Regarding `O=C(c1ccc2cc(Oc3ccc(C(F)(F)F)cn3)ccc2n1)N1CCCC1c1ccc(C(F)(F)F)cc1` (stereo not shown) [Example 224, {2-[4-(trifluoromethyl)phenyl]pyrrolidin-1-yl}(6-{[5-(trifluoromethyl)pyridin-2-yl]oxy}quinolin-2-yl)methanone], under setting [2], the IC50 is above 20000 nM.

Take `O=C(NCCCN1CCCC1=O)c1ccc2cc(Oc3ccc(C(F)(F)F)cn3)ccc2n1` [Example 608, N-[3-(2-oxopyrrolidin-1-yl)propyl]-6-{[5-(trifluoromethyl)pyridin-2-yl]oxy}quinoline-2-carboxamide]: the IC50 under setting [1] was 2700 nM.

As for `O=C(NC1CNC1)c1ccc2cc(Oc3ccc(C(F)(F)F)cn3)ccc2n1` [Example 216, N-(azetidin-3-yl)-6-{[5-(trifluoromethyl)pyridin-2-yl]oxy}quinoline-2-carboxamide], under setting [1], the IC50 was 1670 nM.

`O=C(N[C@@H]1CCN(C(=O)c2ccc3cc(Oc4ccc(C(F)(F)F)cn4)ccc3n2)C1)C1CC1` [Example 439, N-{(3R)-1-[(6-{[5-(trifluoromethyl)pyridin-2-yl]oxy}quinolin-2-yl)carbonyl]pyrrolidin-3-yl}cyclopropanecarboxamide]: the IC50 under setting [1] amounted to 5860 nM.

Regarding `CNC(=O)C1CN(C(=O)c2ccc3cc(Oc4ccc(C(F)(F)F)cn4)ccc3n2)CCN1` (stereo not shown) [Example 322, N-methyl-4-[(6-{[5-(trifluoromethyl)pyridin-2-yl]oxy}quinolin-2-yl)carbonyl]piperazine-2-carboxamide], the IC50 under setting [2] turned out to be 12000 nM.

`CS(=O)(=O)C1CN(C(=O)c2ccc3cc(Oc4ccc(C(F)(F)F)nc4)ccc3n2)C1` [Example 534, [3-(methylsulfonyl)azetidin-1-yl](6-{[6-(trifluoromethyl)pyridin-3-yl]oxy}quinolin-2-yl)methanone]: the IC50 under setting [1] came to 1970 nM.

As to `O=C(NCC1CCN1)c1ccc2cc(Oc3ccc(C(F)(F)F)cn3)ccc2n1` (stereo not shown) [Example 424, N-(azetidin-2-ylmethyl)-6-{[5-(trifluoromethyl)pyridin-2-yl]oxy}quinoline-2-carboxamide], the IC50 under setting [2] worked out at 1310 nM.
